Reference: patent publication US10670605B2, “Cysteine reactive probes and uses thereof” (The Scripps Research Institute, priority 2015, dated 2020)
“And” between values parts separate entries of the source, which are not always exact repeats. Equal entries are not always repeated.

Experiments:
Assay in all cases: Competitive isoTOP-ABPP, cell lysates;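 as to isoTOP-ABPP reactivity profile ratio, O00170 C122: Heavy/light ratio DMSO over fragment-treated so higher means more cysteine engagement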
Assay type in all cases: binding
IDH2 C308 (P48735) = target: T1, IDH2 C308 (P48735) (Homo sapiens, UniProt P48735); conditions: for isoTOP-ABPP ratio, P48735_C308: 500 μM, invitro, 231
T1 sequence (P48735 40-452): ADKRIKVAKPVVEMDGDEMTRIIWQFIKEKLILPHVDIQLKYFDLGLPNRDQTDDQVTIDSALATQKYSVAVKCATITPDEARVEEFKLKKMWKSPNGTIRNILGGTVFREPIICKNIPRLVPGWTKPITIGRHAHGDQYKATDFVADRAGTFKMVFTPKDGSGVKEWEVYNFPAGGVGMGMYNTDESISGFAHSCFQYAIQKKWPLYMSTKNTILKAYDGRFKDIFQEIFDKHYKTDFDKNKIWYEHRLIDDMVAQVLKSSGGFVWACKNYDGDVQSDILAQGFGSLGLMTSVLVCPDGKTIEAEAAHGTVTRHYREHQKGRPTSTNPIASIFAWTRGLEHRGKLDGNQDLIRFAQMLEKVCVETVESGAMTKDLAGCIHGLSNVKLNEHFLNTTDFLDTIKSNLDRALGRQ

DCUN1D1 C115 (Q96GG9) = DCUN1D1 C115 (Q96GG9) (Homo sapiens, UniProt Q96GG9); conditions: for isoTOP-ABPP ratio, Q96GG9_C115: 500 μM, invitro
DCUN1D1 C115 (Q96GG9), sequence (Q96GG9 whole entry, the tested form may be a part): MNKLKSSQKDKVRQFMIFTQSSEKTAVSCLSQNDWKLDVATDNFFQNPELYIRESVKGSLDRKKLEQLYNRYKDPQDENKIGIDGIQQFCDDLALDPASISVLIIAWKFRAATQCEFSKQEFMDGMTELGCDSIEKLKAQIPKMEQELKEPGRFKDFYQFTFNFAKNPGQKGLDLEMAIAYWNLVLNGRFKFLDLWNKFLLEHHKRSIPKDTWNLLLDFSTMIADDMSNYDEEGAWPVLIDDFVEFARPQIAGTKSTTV

AIP C122 (O00170) = target: T2, AIP C122 (O00170) (Homo sapiens, UniProt O00170); conditions: for isoTOP-ABPP ratio, O00170_C122: 500 μM, invitro, ramos;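 as to isoTOP-ABPP reactivity profile ratio, O00170 C122: Heavy/light ratio DMSO over fragment-treated so higher means more cysteine engagement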
T2 sequence (O00170 1-330): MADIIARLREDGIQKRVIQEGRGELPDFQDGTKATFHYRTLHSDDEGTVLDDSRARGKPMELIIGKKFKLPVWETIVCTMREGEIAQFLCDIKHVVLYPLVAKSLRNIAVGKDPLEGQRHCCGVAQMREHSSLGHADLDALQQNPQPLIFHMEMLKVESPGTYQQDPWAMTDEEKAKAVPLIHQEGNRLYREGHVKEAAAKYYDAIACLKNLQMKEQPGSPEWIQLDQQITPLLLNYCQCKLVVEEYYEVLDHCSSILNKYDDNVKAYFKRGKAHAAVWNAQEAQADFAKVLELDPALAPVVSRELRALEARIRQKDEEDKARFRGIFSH

ZNF217 C286 (O75362) = ZNF217 C286 (O75362) (Homo sapiens, UniProt O75362); conditions: for isoTOP-ABPP ratio O75362_C286: 500 μM, invitro, 231
ZNF217 C286 (O75362), sequence (O75362 whole entry): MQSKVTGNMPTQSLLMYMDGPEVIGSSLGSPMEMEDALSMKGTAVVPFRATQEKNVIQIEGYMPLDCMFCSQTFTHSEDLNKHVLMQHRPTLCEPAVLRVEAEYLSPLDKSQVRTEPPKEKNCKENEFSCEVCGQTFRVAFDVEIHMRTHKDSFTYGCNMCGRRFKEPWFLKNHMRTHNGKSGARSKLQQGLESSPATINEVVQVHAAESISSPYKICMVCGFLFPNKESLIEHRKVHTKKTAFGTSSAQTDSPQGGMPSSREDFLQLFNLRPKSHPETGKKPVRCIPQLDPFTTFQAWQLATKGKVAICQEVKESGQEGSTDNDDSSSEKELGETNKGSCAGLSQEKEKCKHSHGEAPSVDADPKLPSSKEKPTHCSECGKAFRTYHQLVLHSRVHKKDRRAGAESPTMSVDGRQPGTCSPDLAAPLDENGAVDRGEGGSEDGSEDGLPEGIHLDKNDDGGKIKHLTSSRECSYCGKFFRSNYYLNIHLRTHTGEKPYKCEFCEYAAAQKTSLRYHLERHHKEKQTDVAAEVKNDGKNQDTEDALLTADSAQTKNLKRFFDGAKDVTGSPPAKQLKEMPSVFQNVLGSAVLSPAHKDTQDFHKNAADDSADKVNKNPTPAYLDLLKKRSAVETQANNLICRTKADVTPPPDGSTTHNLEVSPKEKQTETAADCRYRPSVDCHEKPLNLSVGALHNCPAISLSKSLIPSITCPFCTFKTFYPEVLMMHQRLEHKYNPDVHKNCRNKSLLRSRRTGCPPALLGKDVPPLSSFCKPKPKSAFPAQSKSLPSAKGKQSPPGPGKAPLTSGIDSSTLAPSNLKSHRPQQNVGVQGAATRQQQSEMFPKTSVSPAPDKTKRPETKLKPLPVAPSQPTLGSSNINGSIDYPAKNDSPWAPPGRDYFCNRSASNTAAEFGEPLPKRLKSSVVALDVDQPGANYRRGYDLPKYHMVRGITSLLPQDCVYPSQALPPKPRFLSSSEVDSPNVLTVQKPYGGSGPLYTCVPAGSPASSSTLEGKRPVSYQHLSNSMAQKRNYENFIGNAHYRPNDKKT

UCHL3 C95 (P15374) = target: T3, UCHL3 C95 (P15374) (Homo sapiens, UniProt P15374); conditions: for isoTOP-ABPP ratio, P15374_C95: 500 μM, invitro
T3 sequence (P15374 1-230): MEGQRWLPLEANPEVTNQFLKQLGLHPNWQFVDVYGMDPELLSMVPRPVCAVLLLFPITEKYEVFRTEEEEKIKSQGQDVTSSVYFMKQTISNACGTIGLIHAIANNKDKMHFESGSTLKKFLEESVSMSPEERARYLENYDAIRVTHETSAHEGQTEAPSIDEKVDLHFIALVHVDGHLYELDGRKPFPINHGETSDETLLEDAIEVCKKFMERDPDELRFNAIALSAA

UBE2S C118 (Q16763) = target: T4, UBE2S C118 (Q16763) (Homo sapiens, UniProt Q16763); conditions: for isoTOP-ABPP ratio, Q16763_C118: 500 μM, invitro
T4 sequence (Q16763 1-222): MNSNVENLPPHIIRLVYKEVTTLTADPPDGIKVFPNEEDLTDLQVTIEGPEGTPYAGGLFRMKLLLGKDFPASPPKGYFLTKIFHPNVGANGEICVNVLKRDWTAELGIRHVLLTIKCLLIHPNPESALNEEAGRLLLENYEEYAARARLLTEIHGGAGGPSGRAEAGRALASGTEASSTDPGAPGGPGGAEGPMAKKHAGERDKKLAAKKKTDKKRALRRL

Q: What does the source list for `O=C(CCl)NC(=O)NC12CC3CC(CC(C3)C1)C2` [compound 12]?
A: isoTOP-ABPP ratio, P48735_C308 (IDH2 C308 (P48735)): 1.7; isoTOP-ABPP ratio, Q96GG9_C115 (DCUN1D1 C115 (Q96GG9); ramos): 0.6; isoTOP-ABPP ratio, O00170_C122 (AIP C122 (O00170)): 1.3; isoTOP-ABPP ratio O75362_C286 (ZNF217 C286 (O75362)): 1.0; isoTOP-ABPP ratio, P15374_C95 (UCHL3 C95 (P15374); ramos): 0.5; isoTOP-ABPP ratio, Q16763_C118 (UBE2S C118 (Q16763); ramos): 0.6

Q: Which “isoTOP-ABPP ratio, P48735_C308” value (IDH2 C308 (P48735)) does the source give for `O=C(CCl)N1CCN(S(=O)(=O)c2ccccc2F)CC1` [compound 10] here?
A: 1.1

Q: What about the “isoTOP-ABPP ratio, Q96GG9_C115” value (DCUN1D1 C115 (Q96GG9); 231) of the same compound?
A: 1.3

Q: What about the “isoTOP-ABPP ratio, Q96GG9_C115” value (DCUN1D1 C115 (Q96GG9); ramos) of the same compound?
A: 1.0

Q: And the “isoTOP-ABPP ratio, O00170_C122” value (AIP C122 (O00170))?
A: 1.7

Q: What about the “isoTOP-ABPP ratio O75362_C286” value (ZNF217 C286 (O75362)) of the same compound?
A: 1.1

Q: What about the “isoTOP-ABPP ratio, P15374_C95” value (UCHL3 C95 (P15374); 231) of the same compound?
A: 2.0

Q: And the “isoTOP-ABPP ratio, Q16763_C118” value (UBE2S C118 (Q16763); 231)?
A: 1.7

Q: For `CC(C)CCOCCNC(=O)CCl` [compound 27], which “isoTOP-ABPP ratio (reactivity profile), P48735_C308” value (IDH2 C308 (P48735); 500 μm in-vitro ramos_231) is on record?
A: 1.9 and 1.0

Q: And the “isoTOP-ABPP ratio (reactivity profile), Q96GG9_C115” value (DCUN1D1 C115 (Q96GG9); 500 μm in-vitro ramos)?
A: 1.0

Q: And the “isoTOP-ABPP ratio (reactivity profile), Q96GG9_C115” value (DCUN1D1 C115 (Q96GG9); 500 μm in-vitro ramos_231)?
A: 1.1

Q: What about the “isoTOP-ABPP ratio (reactivity profile), O00170_C122” value (AIP C122 (O00170); 500 μm in-vitro ramos) of the same compound?
A: 1.0

Q: And the “isoTOP-ABPP ratio (reactivity profile), O00170_C122” value (AIP C122 (O00170); 500 μm in-vitro ramos_231)?
A: 0.4

Q: What about the “isoTOP-ABPP ratio (reactivity profile), O75362_C286” value (ZNF217 C286 (O75362); 500 μm in-vitro ramos) of the same compound?
A: 1.0

Q: And the “isoTOP-ABPP ratio (reactivity profile), P15374_C95” value (UCHL3 C95 (P15374); 500 μm in-vitro ramos)?
A: 1.0

Q: And the “isoTOP-ABPP ratio (reactivity profile), P15374_C95” value (UCHL3 C95 (P15374); 500 μm in-vitro ramos_231)?
A: 0.4

Q: What about the “isoTOP-ABPP ratio (reactivity profile), Q16763_C118” value (UBE2S C118 (Q16763); 500 μm in-vitro ramos) of the same compound?
A: 0.9

Q: And the “isoTOP-ABPP ratio (reactivity profile), Q16763_C118” value (UBE2S C118 (Q16763); 500 μm in-vitro ramos_231)?
A: 0.8

Q: How did the “isoTOP-ABPP ratio (reactivity profile), P48735_C308” value (IDH2 C308 (P48735); 500 μm in-vitro ramos_231) turn out when `O=C(CCl)N1CCC(C(O)(c2ccccc2)c2ccccc2)CC1` [compound 20] was run?
A: 0.5

Q: And the “isoTOP-ABPP ratio (reactivity profile), Q96GG9_C115” value (DCUN1D1 C115 (Q96GG9); 500 μm in-vitro ramos)?
A: 1.2

Q: What about the “isoTOP-ABPP ratio (reactivity profile), Q96GG9_C115” value (DCUN1D1 C115 (Q96GG9); 500 μm in-vitro ramos_231) of the same compound?
A: 1.2

Q: What about the “isoTOP-ABPP ratio (reactivity profile), O00170_C122” value (AIP C122 (O00170); 500 μm in-vitro ramos) of the same compound?
A: 2.2

Q: And the “isoTOP-ABPP ratio (reactivity profile), O75362_C286” value (ZNF217 C286 (O75362); 500 μm in-vitro ramos_231)?
A: 1.3

Q: And the “isoTOP-ABPP ratio (reactivity profile), P15374_C95” value (UCHL3 C95 (P15374); 500 μm in-vitro ramos)?
A: 0.9

Q: What about the “isoTOP-ABPP ratio (reactivity profile), P15374_C95” value (UCHL3 C95 (P15374); 500 μm in-vitro ramos_231) of the same compound?
A: 1.0

Q: What about the “isoTOP-ABPP ratio (reactivity profile), Q16763_C118” value (UBE2S C118 (Q16763); 500 μm in-vitro ramos) of the same compound?
A: 2.9

Q: What does the source list for `CCN(CC)c1ccc(S(N)(=O)=O)cc1NC(=O)CCl` [compound 30]?
A: isoTOP-ABPP ratio (reactivity profile), P48735_C308 (IDH2 C308 (P48735); 500 μm in-vitro ramos): 0.7; isoTOP-ABPP ratio (reactivity profile), Q96GG9_C115 (DCUN1D1 C115 (Q96GG9); 500 μm in-vitro ramos): 0.7; isoTOP-ABPP reactivity ratio, Q96GG9_C115 (DCUN1D1 C115 (Q96GG9); 500 μm, in-vitro_ramos): 1.1; isoTOP-ABPP ratio (reactivity profile), O00170_C122 (AIP C122 (O00170); 500 μm in-vitro ramos): 1.1; isoTOP-ABPP reactivity ratio, O00170_C122 (AIP C122 (O00170); 500 μm, in-vitro_ramos): 2.0; isoTOP-ABPP reactivity ratio, O75362_C286 (ZNF217 C286 (O75362); 500 μm, in-vitro_ramos): 2.1; isoTOP-ABPP ratio (reactivity profile), P15374_C95 (UCHL3 C95 (P15374); 500 μm in-vitro ramos): 0.7; isoTOP-ABPP reactivity ratio, P15374_C95 (UCHL3 C95 (P15374); 500 μm, in-vitro_ramos): 1.0; isoTOP-ABPP ratio (reactivity profile), Q16763_C118 (UBE2S C118 (Q16763); 500 μm in-vitro ramos): 0.7; isoTOP-ABPP reactivity ratio, Q16763_C118 (UBE2S C118 (Q16763); 500 μm, in-vitro_ramos): 1.1

Q: Which results are given for `O=C(CCl)NC12CC3CC(CC(C3)C1)C2` [compound 21]?
A: isoTOP-ABPP ratio (reactivity profile), P48735_C308 (IDH2 C308 (P48735); 500 μm in-vitro ramos_231): 0.6; isoTOP-ABPP ratio (reactivity profile), Q96GG9_C115 (DCUN1D1 C115 (Q96GG9); 500 μm in-vitro ramos): 1.0; isoTOP-ABPP ratio (reactivity profile), Q96GG9_C115 (DCUN1D1 C115 (Q96GG9); 500 μm in-vitro ramos_231): 1.0; isoTOP-ABPP ratio (reactivity profile), O00170_C122 (AIP C122 (O00170); 500 μm in-vitro ramos_231): 1.4; isoTOP-ABPP ratio (reactivity profile), O75362_C286 (ZNF217 C286 (O75362); 500 μm in-vitro ramos_231): 0.9; isoTOP-ABPP ratio (reactivity profile), P15374_C95 (UCHL3 C95 (P15374); 500 μm in-vitro ramos_231): 1.1; isoTOP-ABPP ratio (reactivity profile), Q16763_C118 (UBE2S C118 (Q16763); 500 μm in-vitro ramos_231): 0.9

Q: What does the source list for `C=CC(=O)N1CCC(Cc2ccccc2)CC1` [compound 53]?
A: isoTOP-ABPP reactivity profile ratio, P48735_C308 (IDH2 C308 (P48735); 500 μm, in-vitro_ramos_231): 0.5; isoTOP-ABPP reactivity profile ratio, Q96GG9_C115 (DCUN1D1 C115 (Q96GG9); 500 μm, in-vitro_ramos): 0.9; isoTOP-ABPP reactivity profile ratio, Q96GG9_C115 (DCUN1D1 C115 (Q96GG9); 500 μm, in-vitro_ramos_231): 1.0; isoTOP-ABPP reactivity profile ratio, O00170_C122 (AIP C122 (O00170); 500 μm, in-vitro_ramos): 0.9; isoTOP-ABPP reactivity profile ratio, O75362_C286 (ZNF217 C286 (O75362); 500 μm, in-vitro_ramos_231): 1.1; isoTOP-ABPP reactivity profile ratio, P15374_C95 (UCHL3 C95 (P15374); 500 μm, in-vitro_ramos): 0.7; isoTOP-ABPP reactivity profile ratio, Q16763_C118 (UBE2S C118 (Q16763); 500 μm, in-vitro_ramos): 0.8; isoTOP-ABPP reactivity profile ratio, Q16763_C118 (UBE2S C118 (Q16763); 500 μm, in-vitro_ramos_231): 1.0
